For 15 compounds, IC50, Kb and Ki results are on record in US12559494B2, “Functionalized lactams as modulators of the 5-hydroxytryptamine receptor 7 and their method of use” (Temple University - Of The Commonwealth System of Higher …, priority 2018, dated 2026).

Test [1] concerns the target T1, 5HT7 receptors (Homo sapiens, UniProt P34969). Kind of test: Radiolabeled binding (IC50 and Ki), [3H]LSD competition on membranes of cells expressing recombinant 5HT7 receptors. Also noted: expressed in transfected cells. As for the experimental part:
Radiolabel Binding Studies for Serotonin 5HT7 Receptors, Method 1:
A solution of the compound of the disclosure to be tested is prepared as a 1-mg/ml stock in Assay Buffer or DMSO according to its solubility. A similar stock of the reference compound chlorpromazine is also prepared as a positive control. Eleven dilutions (5×assay concentration) of the compound of the disclosure and chlorpromazine are prepared in the Assay Buffer by serial dilution to yield final corresponding assay concentrations ranging from 10 pM to 10 μM.
A stock concentration of 5 nM [^3H]LSD (lysergic acid diethyl amide) is prepared in 50 mM Tris-HCl, 10 mM MgCl2, 1 mM EDTA, pH 7.4 (Assay Buffer). Aliquots (50 μl) of radioligand are dispensed into the wells of a 96-well plate containing 100 μl of Assay Buffer. Duplicate 50-μl aliquots of the compound of the disclosure test and chlorpromazine positive control reference compound serial dilutions are added.
Membrane fractions of cells expressing recombinant 5HT7 receptors (50 μL) are dispensed into each well. The membranes are prepared from stably transfected cell lines expressing 5HT7 receptors cultured on 10-cm plates by harvesting PBS-rinsed monolayers, resuspending and lysing in chilled, hypotonic 50 mM Tris-HCl, pH 7.4, centrifuging at 20,000×g, decanting the supernatant and storing at −80° C.; the membrane preparations are resuspended in 3 ml of chilled Assay Buffer and homogenized by several passages through a 26 gauge needle before using in the assay.
The 250-μl reactions are incubated at room temperature for 1.5 hours, then harvested by rapid filtration onto 0.3% polyethyleneimine-treated, 96-well filter mats using a 96-well Filtermate harvester. Four rapid 500-μl washes are performed with chilled Assay Buffer to reduce non-specific binding. The filter mats are dried, then scintillant is added to the filters and the radioactivity retained on the filters is counted in a Microbeta scintillation counter.
Raw data (dpm) representing total radioligand binding (i.e., specific+non-specific binding) are plotted as a function of the logarithm of the molar concentration of the competitor (i.e., test or reference compound). Non-linear regression of the normalized (i.e., percent radioligand binding compared to that observed in the absence of test or reference compound) raw data is performed in Prism 4.0 (GraphPad Software) using the built-in three parameter logistic model describing ligand competition binding to radioligand-labeled sites: y=bottom+[(top-bottom)/(1+10×−logIC50)] where bottom equals the residual radioligand binding measured in the presence of 10 μM reference compound (i.e., non-specific binding) and top equals the total radioligand binding observed in the absence of competitor. The log IC50 (i.e., the log of the ligand concentration that reduces radioligand binding by 50%) is thus estimated from the data and used to obtain the Ki by applying the Cheng-Prusoff approximation: Ki=IC50/(1+[ligand]/KD) • where [ligand] equals the assay radioligand concentration and KD equals the affinity constant of the radioligand for the target receptor.
^1Radiolabeled Binding (IC50 and K1)
A solution of the compound of the disclosure to be tested was prepared as a 1-mg/ml stock in Assay Buffer or DMSO according to its solubility. A similar stock of the reference compound chlorpromazine was also prepared as a positive control. Eleven dilutions (5× assay concentration) of the compound of the disclosure and chlorpromazine were prepared in the Assay Buffer by serial dilution to yield final corresponding assay concentrations ranging from […].
A stock concentration of 5 nM [^3H]LSD (lysergic acid diethyl amide) was prepared in 50 mM Tris-HCl, 10 mM MgCl2, 1 mM EDTA, pH 7.4 (Assay Buffer). Aliquots (50 μl) of radioligand were dispensed into the wells of a 96-well plate containing 100 μl of Assay Buffer. […]

Test [2] addresses T1, 5HT7 receptors. Briefly: Functional data (Kb), HitHunter cAMP enzyme fragment complementation assay with 5-HT as agonist. The class given is cell-based. Also noted: expressed in transfected cells; G418 selection). On the procedure:
Functional efficacy of the compounds of the disclosure on 5-HT7 serotonin receptors were measured in a cell based cAMP enzyme fragment complementation assay using the HitHunter cAMP assay (DiscoveRx). Cells stably expressing human 5HT7 receptors were plated in 96-well plates at 4000 cells/well, 16-20 hours prior to assay in growth media (Ultraculture medium, 2 mM GlutaMax and G418 1 mg/mL. Serial dilutions of the agonist, 5-hydroxytryptamine (5-HT), were prepared in a final concentration range of 10 μM to 10 nM. Compounds of the disclosure were prepared in 3-fold serial dilutions to obtain a final concentration range of 10 μM to 0.1 nM. Compounds of the disclosure are tested for agonist activity in the absence of 5-HT and antagonist activity in the presence of 5-HT. For the cAMP assay, the protocol was followed according to the instructions provided by the supplier. Briefly, cells were incubated with a compound of the disclosure for 30 minutes at 37° C. prior to addition of EC70 concentration of 5-HT. After an additional 30 minutes, cAMP antibody/cell lysis solution was added (20 μL/well) and incubated for 60 minutes at room temperature. cAMP XS+EA reagent is added (20 μL/well) and incubated for 2 hours at room temperature. Luminescence was read on the Envision Multilabel plate reader.

The mark [3] stands for this setting: [3H]LSD radioligand, membranes of cells expressing recombinant 5HT7 receptors, read-out: IC50 (nM)^1.
Setting [4] is: cAMP assay, cells stably expressing human 5HT7 receptors, antagonist activity in the presence of EC70 5-HT, read-out: Kb (nM)^2.
The mark [5] stands for this setting: Table 35, scaffold drawing 615, antagonist mode vs 5-HT, read-out: Kb.
Where [6] appears, read: Table 35, scaffold drawing 615, read-out: IC50.

The IC50 is the midpoint of a concentration-inhibition curve. Broadly, the Kb is the equilibrium dissociation constant of an antagonist, usually derived from a functional assay. Broadly, the Ki is a dissociation constant, usually derived from enzyme kinetics or from competition with a known ligand.

Where a name gives a salt, the structure may show the parent alone. Read-outs that look alike come from different tables or passages of the source.

T1 sequence (P34969 whole entry): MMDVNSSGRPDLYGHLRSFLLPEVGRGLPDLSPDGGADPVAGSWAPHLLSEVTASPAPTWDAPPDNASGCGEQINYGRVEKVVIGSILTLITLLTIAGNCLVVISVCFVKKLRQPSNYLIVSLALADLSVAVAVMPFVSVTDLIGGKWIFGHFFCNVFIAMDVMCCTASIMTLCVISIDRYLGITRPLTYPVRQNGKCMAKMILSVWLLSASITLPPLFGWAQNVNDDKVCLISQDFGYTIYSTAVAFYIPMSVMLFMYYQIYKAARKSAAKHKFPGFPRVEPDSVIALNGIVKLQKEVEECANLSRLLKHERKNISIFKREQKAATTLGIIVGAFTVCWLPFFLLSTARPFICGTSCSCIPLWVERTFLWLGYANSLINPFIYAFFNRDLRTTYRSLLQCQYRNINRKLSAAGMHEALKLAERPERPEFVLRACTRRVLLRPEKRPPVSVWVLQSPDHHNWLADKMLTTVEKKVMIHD

As to `CCC1(CC)CC(CCN2CCN(c3ccc(Cl)cc3)CC2)NC1=O` (centres unmarked) [5-(2-(4-(4-chlorophenyl)piperazin-1-yl)ethyl)-3,3-diethylpyrrolidin-2-one], the IC50 in test [1] (setting [3]) worked out at 13 nM. In test [2] (setting [4]), the antagonist dissociation constant (Kb) was 54.6 nM. For `CCC1(CC)CC(CCN2CCN(c3ccc(C)cc3)CC2)NC1=O` (centres unmarked) [3,3-diethyl-5-(2-(4-(p-tolyl)piperazin-1-yl)ethyl)pyrrolidin-2-one], in that order: 28 nM and 24.1 nM. Turning to `CCC1(CC)C[C@H](CCN2CCN(c3ccc(C)cc3)CC2)NC1=O` [(R)-3,3-diethyl-5-(2-(4-(p-tolyl)piperazin-1-yl)ethyl)pyrrolidin-2-one], in test [1] (Table 35, scaffold drawing 615), the inhibition constant (Ki) was 11 nM. For the same compound, in test [2] (setting [5]), the antagonist equilibrium constant (Kb) was 8.43 nM. Take `CCC1(CC)C[C@H](CN2CCN(c3ccccn3)CC2)NC1=O` [(R)-3,3-diethyl-5-((4-(pyridin-2-yl)piperazin-1-yl)methyl)pyrrolidin-2-one formate]: the inhibitory constant (Ki) in test [1] (Table 35, scaffold drawing 615) turned out to be 669 nM. For the compound `CS(=O)(=O)N1CCC2(CC1)C[C@H](CCN1CCN(c3ccc(F)cc3)CC1)NC2=O` [drawing 617 n=2 R3=4-F-Phenyl R7=MeSO2, (R)-3-(2-(4-(4-fluorophenyl)piperazin-1-yl)ethyl)-8-(methylsulfonyl)-2,8-diazaspiro[4.5]decan-1-one], in test [1] (Table 37, scaffold drawing 617), the inhibition constant Ki came out at 89 nM. Further, in test [2] (Table 37, scaffold drawing 617, antagonist mode vs 5-HT, read-out: Kb), the Kb came to 30.7 nM.

For the compound `CCC1(CC)C[C@H](CN2CCN(c3ccc(C)cc3)CC2)NC1=O` [(R)-3,3-diethyl-5-((4-(p-tolyl)piperazin-1-yl)methyl)pyrrolidin-2-one formate], the inhibitory constant (Ki) in test [1] (Table 35, scaffold drawing 615) turned out to be 249 nM.

`CCC1(CC)C[C@H](CN2CCN(c3ccc(C)cc3N3CCOCC3)CC2)NC1=O` [(R)-3,3-diethyl-5-((4-(4-methyl-2-morpholinophenyl)piperazin-1-yl)methyl)pyrrolidin-2-one formate]: the Ki in test [1] (Table 35, scaffold drawing 615) was 132 nM. Besides, the Kb in test [2] (setting [5]) was found to be 43.8 nM. Take `CCC1(CC)C[C@H](CN2CCN(c3ccccc3)CC2)NC1=O` [drawing 615 n=1 R1=Ethyl R2=Ethyl R3=Phenyl, (R)-3,3-diethyl-5-((4-phenylpiperazin-1-yl)methyl)pyrrolidin-2-one formate]: the inhibitory constant (Ki) in test [1] (Table 35, scaffold drawing 615) stood at 819 nM. `CCC1(CC)C[C@H](CCN2CCN(c3ccc(F)c(Cl)c3)CC2)NC1=O` [(R)-5-(2-(4-(3-chloro-4-fluorophenyl)piperazin-1-yl)ethyl)-3,3-diethylpyrrolidin-2-one]: in test [1] (setting [6]), the 50% inhibitory concentration (IC50) amounted to 8.7 nM. Besides, in test [2] (setting [5]), the Kb was determined as 1.92 nM. With `CCC1(CC)CC(CCN2CCN(c3ccccc3)CC2)NC1=O` (centres unmarked) [3,3-diethyl-5-(2-(4-phenylpiperazin-1-yl)ethyl)pyrrolidin-2-one], in test [1] (setting [3]), the IC50 was determined as 68 nM. Further, the Kb in test [2] (setting [4]) is 17.8 nM.

For the compound `CCC1(CC)C[C@H](CCN2CCN(c3ccc(Cl)c(Cl)c3)CC2)NC1=O` [(R)-5-(2-(4-(3,4-dichlorophenyl)piperazin-1-yl)ethyl)-3,3-diethylpyrrolidin-2-one], the IC50 in test [1] (setting [6]) is 82.8 nM. Also, in test [2] (setting [5]), the Kb came out at 6.19 nM. Regarding `CCC1(CC)C[C@H](CN2CCN(c3ccc(F)cc3)CC2)NC1=O` [(R)-3,3-diethyl-5-((4-(4-fluorophenyl)piperazin-1-yl)methyl)pyrrolidin-2-one formate], the Ki in test [1] (Table 35, scaffold drawing 615) was 243 nM. Consider `CCC1(CC)C[C@H](CN2CCN(c3cccc(Cl)c3)CC2)NC1=O` [(R)-5-((4-(3-chlorophenyl)piperazin-1-yl)methyl)-3,3-diethylpyrrolidin-2-one], for which the Ki in test [1] (Table 35, scaffold drawing 615) turned out to be 1090 nM. For `CCC1(CC)C[C@H](CN2CCN(c3ccccc3C(C)C)CC2)NC1=O` [(R)-3,3-diethyl-5-((4-(2-isopropylphenyl)piperazin-1-yl)methyl)pyrrolidin-2-one formate], the inhibition constant Ki in test [1] (Table 35, scaffold drawing 615) amounted to 121 nM. In the case of `CCC1(CC)C[C@H](CCN2CC3CN(c4ccccc4)CC3C2)NC1=O` (stereo partly drawn) [drawing 619 n=2 R1=Ethyl R2=Ethyl R3=Phenyl, (5R)-3,3-diethyl-5-(2-(5-phenylhexahydropyrrolo[3,4-c]pyrrol-2(1H)-yl)ethyl)pyrrolidin-2-one], the Kb in test [2] (Table 39, scaffold drawing 619, antagonist mode vs 5-HT, read-out: Kb) was 144 nM.
